Measured values taken from BigSolDB 2.1.

Settings: in water

| solubility (mole fraction) (283.15 K) | solubility (mole fraction) (288.15 K) | solubility (mole fraction) (293.15 K) | solubility (mole fraction) (298.15 K) | solubility (mole fraction) (303.15 K) | solubility (mole fraction) (308.15 K) | solubility (mole fraction) (313.15 K) | solubility (mole fraction) (318.15 K) | solubility (mole fraction) (323.15 K) | solubility (mole fraction) (328.15 K) | solubility (mole fraction) (333.15 K) | SMILES |
| --- | --- | --- | --- | --- | --- | --- | --- | --- | --- | --- | --- |
| 0.00323 | 0.00343 | 0.00366 | 0.00402 | 0.00437 | 0.00478 | 0.00523 | 0.00563 | 0.00611 | 0.00657 | 0.0072 | O=S(=O)([O-])c1ccc2cc(S(=O)(=O)[O-])ccc2c1.[Na+].[Na+] |
| 0.0128 | 0.014 | 0.0159 | 0.0189 | 0.0224 | 0.0268 | 0.0323 | 0.0383 | 0.0473 | 0.0584 | 0.075 | O=S(=O)([O-])c1ccc2ccc(S(=O)(=O)[O-])cc2c1.[Na+].[Na+] |
